The record followed here is US9433621B2, “Substituted pyridine and pyrimidine derivatives and their use in treating viral infections” (Merck Sharp & Dohme Corp., priority 2010, dated 2016).

As a reminder, the EC90 is the concentration needed for an effect of 90%.

The first assay relates to HCV replicon. Description: Cell-Based HCV Replicon Assay. The conditions noted are these: Hepatitis C virus, 72 h, read-out: EC90 (uM) range. As for the experimental part: Cell-Based HCV Replicon Assay
To measure cell-based anti-HCV activity of the compounds of the present invention, replicon cells were seeded at 5000 cells/well in 96-well collagen I-coated Nunc plates in the presence of the compound of the invention. Various concentrations of a compound of the invention, typically in 10 serial 2-fold dilutions, were added to the assay mixture, the starting concentration of the compound ranging from 25 μM to 1 μM. The final concentration of DMSO was 0.5%, fetal bovine serum was 10%, in the assay media. Cells were harvested on day 3 by the addition of 1× cell lysis buffer (Ambion cat #8721). The replicon RNA level was measured using real time PCR (Taqman assay). The amplicon was located in 5B. The PCR primers were: 5B.2F, ATGGACAGGCGCCCTGA; 5B.2R, […]; the probe sequence was FAM-labeled CACGCCATGCGCTGCGG. GAPDH RNA was used as endogenous control and was amplified in the same reaction as NS5B (multiplex PCR) using primers and VIC-labeled probe recommended by the manufacturer (PE Applied Biosystem). The real-time RT-PCR reactions were run on ABI PRISM® 7900HT Sequence Detection System using the following program: 48′C for 30 min, 95′C for 10 min, 40 cycles of 95′C for 15 sec, 60′C for 1 min. The ΔCT values (CT5B-CTGAPDH) were plotted against the concentration of test compound and fitted to the sigmoid dose-response model using Graph Pad PRISM® software. EC50 was defined as the concentration of inhibitor necessary to achieve ΔCT=1 over the projected baseline; EC90 the concentration necessary to achieve ΔCT=3.2 over the baseline. Alternatively, to quantitate the absolute amount of replicon RNA, a standard curve was established by including serially diluted T7 transcripts of replicon RNA in the Taqman assay. All Taqman reagents were from PE Applied Biosystems. Such an assay procedure was described in detail in e.g. Malcolm et al., Antimicrobial Agents and Chemotherapy 50: 1013-1020 (2006).
HCV Replicon assay data for compounds of the invention that were tested were obtained using the above method.
A general note: In antiviral work, replicon cells carry a viral genome segment that copies itself.
In the case of `Cc1nccc2sc(-c3cnc(N[C@H](C)C4CCC4)nc3N[C@@H]3C[C@H](CO)[C@@H](O)[C@H]3O)nc12` [Example 4915], the EC90 is above 1 µM.

Staying with this assay, now noted: Hepatitis C virus, 72 h; Table IV; replicon cells, day 3, real time PCR; EC90 = concentration for ΔCT=3.2 over baseline; read-out: EC90.
Consider `Cc1nc(NCC(F)(F)C(F)(F)F)nc(N[C@@H]2C[C@H](C(C)(C)O)[C@@H](O)[C@H]2O)c1-c1nc2c(C)nccc2s1` [Example 4346], for which the EC90 came to 0.043 µM. Regarding `Cc1nc(N[C@H](C)c2ccc(OC(F)(F)F)cc2)nc(N[C@@H]2C[C@H](CO)[C@@H](O)[C@H]2O)c1-c1nc2c(N)nccc2s1` [Example 4413], the concentration for an effect of 90% (EC90) stood at 0.121 µM.

As to `Cc1nc(NCc2c(F)cccc2F)nc(N[C@@H]2C[C@H](C(C)(C)O)[C@@H](O)[C@H]2O)c1-c1nc2c(N)nccc2s1` [Example 4443], the concentration for an effect of 90% (EC90) was determined as 0.055 µM. On to `Cc1nc(NC[C@H]2C[C@@H](c3ccccc3)C2)nc(N[C@@H]2C[C@H](CO)[C@@H](O)[C@H]2O)c1-c1nc2cnccc2s1` [Example 4512], for which the concentration for an effect of 90% (EC90) turned out to be 0.019 µM. Take `Cc1nc(NC[C@H]2C[C@H](c3ccccc3)C2)nc(N[C@@H]2C[C@H](CO)[C@@H](O)[C@H]2O)c1-c1nc2cnccc2s1` [Example 4513]: the EC90 was 0.016 µM. Turning to `CCc1cc2sc(-c3c(C)nc(NCC(F)(F)F)nc3N[C@@H]3C[C@H](CO)[C@@H](O)[C@H]3O)nc2c(CC)n1` [Example 4706], the concentration for an effect of 90% (EC90) stood at 0.045 µM.

Still in this assay, the particulars now being: Hepatitis C virus, 72 h; Table V, cells printed as numeric bound instead of code; replicon cells, day 3, real time PCR; read-out: EC90 (uM) range.
On to `C[C@@H](Nc1ncc(-c2nc3c(C4CC4)nccc3s2)c(N[C@@H]2C[C@H](CS(C)(=O)=O)[C@@H](O)[C@H]2O)n1)C1CC1` [Example 4917], for which the concentration for an effect of 90% (EC90) was above 0.2 µM. With `CS(=O)(=O)C[C@H]1C[C@@H](Nc2nc(NC3CCC3)ncc2-c2nc3c(C4CC4)nccc3s2)[C@H](O)[C@@H]1O` [Example 4922], the 90% effect concentration (EC90) was above 0.3 µM.

The assay is the same for the next values; noted with them: Hepatitis C virus, 72 h; Table V, class codes; replicon cells, day 3, real time PCR; EC90 = concentration for ΔCT=3.2 over baseline; read-out: EC90 (uM) range.
For `Cc1nc(NCc2ccccc2F)nc(N[C@@H]2C[C@H](CO)[C@@H](O)[C@H]2O)c1-c1nc2c(C3CC3)nccc2s1` [Example 4901], the EC90 is below 0.5 µM. Consider `Cc1nc(NCc2cccc(F)c2)nc(N[C@@H]2C[C@H](CO)[C@@H](O)[C@H]2O)c1-c1nc2c(C3CC3)nccc2s1` [Example 4902], for which the concentration for an effect of 90% (EC90) was below 0.5 µM. Same read-out and setting: the same measure for `CO[C@@H]1[C@@H](CO)C[C@@H](Nc2nc(NCC3CC3)nc(C)c2-c2nc3c(C)nccc3s2)[C@@H]1O` [Example 4903]: below 0.5 µM; for `CO[C@@H]1[C@@H](CO)C[C@@H](Nc2nc(N[C@H](C)c3ccc(OC(F)(F)F)cc3)nc(C)c2-c2nc3c(C)nccc3s2)[C@@H]1O` [Example 4904]: below 0.5 µM. The same measure, in the same setting: the same measure for `CO[C@@H]1[C@@H](CO)C[C@@H](Nc2nc(NCC(F)(F)F)nc(C)c2-c2nc3c(C)nccc3s2)[C@@H]1O` [Example 4905]: below 0.5 µM. Still for that read-out and setting: under `CNc1nc(C)c(-c2nc3c(C)nccc3s2)c(N[C@@H]2C[C@H](CO)[C@@H](OC)[C@H]2O)n1` [Example 4906] stands 0.5 to 5 µM; under `CO[C@@H]1[C@@H](CO)C[C@@H](Nc2nc(N)nc(C)c2-c2nc3c(C)nccc3s2)[C@@H]1O` [Example 4907], below 0.5 µM; under `Cc1cc2sc(-c3c(C)nc(NCc4c(F)cccc4F)nc3N[C@@H]3C[C@H](CO)[C@@H](O)[C@H]3O)nc2cn1` [Example 4908], below 0.5 µM. For `Cc1cc2sc(-c3c(C)nc(NCC4CC4)nc3N[C@@H]3C[C@H](CO)[C@@H](O)[C@H]3O)nc2cn1` [Example 4909], the EC90 was below 0.5 µM. As to `Cc1cc2sc(-c3c(C)nc(NCC(F)(F)F)nc3N[C@@H]3C[C@H](CO)[C@@H](O)[C@H]3O)nc2cn1` [Example 4910], the EC90 is below 0.5 µM. On the same count and under the same terms, the same measure for `CCOCCNc1nc(C)c(-c2nc3cnc(C)cc3s2)c(N[C@@H]2C[C@H](CO)[C@@H](O)[C@H]2O)n1` [Example 4911]: below 0.5 µM; for `Cc1cc2sc(-c3c(C)nc(N[C@H](C)C4CCC4)nc3N[C@@H]3C[C@H](CO)[C@@H](O)[C@H]3O)nc2cn1` [Example 4912]: below 0.5 µM.

`Cc1ccc([C@@H](C)Nc2nc(C)c(-c3nc4cnc(C)cc4s3)c(N[C@@H]3C[C@H](CO)[C@@H](O)[C@H]3O)n2)cc1` [Example 4913]: the 90% effect concentration (EC90) was below 0.5 µM. The same measure, in the same setting: under `COCCNc1ncc(-c2nc3c(C4CC4)nccc3s2)c(N[C@@H]2C[C@H](CS(C)(=O)=O)[C@@H](O)[C@H]2O)n1` [Example 4916] stands 0.5 to 5 µM; under `C[C@@H](Nc1ncc(-c2nc3c(C4CC4)nccc3s2)c(N[C@@H]2C[C@H](CS(C)(=O)=O)[C@@H](O)[C@H]2O)n1)C1CCC1` [Example 4918], below 0.5 µM. Same read-out and setting: under `CS(=O)(=O)C[C@H]1C[C@@H](Nc2nc(N)ncc2-c2nc3c(C4CC4)nccc3s2)[C@H](O)[C@@H]1O` [Example 4919] stands below 0.5 µM; under `CS(=O)(=O)C[C@H]1C[C@@H](Nc2nc(NCC3CC3)ncc2-c2nc3c(C4CC4)nccc3s2)[C@H](O)[C@@H]1O` [Example 4920], below 0.5 µM; under `C[C@@H](Nc1ncc(-c2nc3c(C4CC4)nccc3s2)c(N[C@@H]2C[C@H](CS(C)(=O)=O)[C@@H](O)[C@H]2O)n1)c1ccc(OC(F)(F)F)cc1` [Example 4921], 0.5 to 5 µM. The same measure, in the same setting: under `Cc1nc(N[C@H](C)C2CC2)nc(N[C@@H]2C[C@H](C(=O)N3CCOCC3)[C@@H](O)[C@H]2O)c1-c1nc2c(C3CC3)nccc2s1` [Example 4923] stands below 0.5 µM; under `Cc1nc(NCC2CC2)nc(N[C@@H]2C[C@H](C(=O)N3CCOCC3)[C@@H](O)[C@H]2O)c1-c1nc2c(C3CC3)nccc2s1` [Example 4924], below 0.5 µM; under `Cc1nc(N)nc(N[C@@H]2C[C@H](C(=O)N3CCOCC3)[C@@H](O)[C@H]2O)c1-c1nc2c(C3CC3)nccc2s1` [Example 4925], below 0.5 µM. Turning to `COCCNc1nc(C)c(-c2nc3c(C4CC4)nccc3s2)c(N[C@@H]2C[C@H](C(=O)Nc3nccs3)[C@@H](O)[C@H]2O)n1` [Example 4926], the EC90 is below 0.5 µM. On the same count and under the same terms, the same measure for `Cc1nc(NCC2CC2)nc(N[C@@H]2C[C@H](C(=O)Nc3nccs3)[C@@H](O)[C@H]2O)c1-c1nc2c(C3CC3)nccc2s1` [Example 4927]: below 0.5 µM. Same read-out and setting: the same measure for `Cc1nc(N[C@H](C)c2ccc(OC(F)(F)F)cc2)nc(N[C@@H]2C[C@H](C(=O)Nc3nccs3)[C@@H](O)[C@H]2O)c1-c1nc2c(C3CC3)nccc2s1` [Example 4928]: below 0.5 µM; for `Cc1nc(N)nc(N[C@@H]2C[C@H](C(=O)NC(C)(C)C)[C@@H](O)[C@H]2O)c1-c1nc2c(C3CC3)nccc2s1` [Example 4929]: below 0.5 µM. Same read-out and setting: the same measure for `COCCNc1nc(C)c(-c2nc3c(C4CC4)nccc3s2)c(N[C@@H]2C[C@H](C(=O)NC(C)(C)C)[C@@H](O)[C@H]2O)n1` [Example 4930]: below 0.5 µM; for `Cc1nc(NCC2CC2)nc(N[C@@H]2C[C@H](C(=O)NC(C)(C)C)[C@@H](O)[C@H]2O)c1-c1nc2c(C3CC3)nccc2s1` [Example 4931]: below 0.5 µM; for `Cc1nc(N[C@H](C)c2ccc(F)cc2)nc(N[C@@H]2C[C@H](CO)[C@@H](O)[C@H]2O)c1-c1nc2c(C3CC3)nccc2s1` [Example 4932]: below 0.5 µM. In the case of `Cc1cccc([C@@H](C)Nc2nc(C)c(-c3nc4c(C5CC5)nccc4s3)c(N[C@@H]3C[C@H](CO)[C@@H](O)[C@H]3O)n2)c1` [Example 4933], the EC90 is below 0.5 µM.

On to `Cc1ccccc1[C@@H](C)Nc1nc(C)c(-c2nc3c(C4CC4)nccc3s2)c(N[C@@H]2C[C@H](CO)[C@@H](O)[C@H]2O)n1` [Example 4934], for which the EC90 was below 0.5 µM.

In the case of `Cc1nccc2sc(-c3cnc(NCC4CC4)nc3N[C@@H]3C[C@H](C(C)(C)O)[C@@H](O)[C@H]3O)nc12` [Example 4935], the concentration for an effect of 90% (EC90) was below 0.5 µM. On the same count and under the same terms, the same measure for `CCSCCNc1ncc(-c2nc3c(C)nccc3s2)c(N[C@@H]2C[C@H](C(C)(C)O)[C@@H](O)[C@H]2O)n1` [Example 4936]: below 0.5 µM; for `Cc1nccc2sc(-c3cnc(N)nc3N[C@@H]3C[C@H](C(C)(C)O)[C@@H](O)[C@H]3O)nc12` [Example 4937]: 0.5 to 5 µM; for `COCCNc1ncc(-c2nc3c(C)nccc3s2)c(N[C@@H]2C[C@H](C(C)(C)O)[C@@H](O)[C@H]2O)n1` [Example 4938]: below 0.5 µM. On to `CO[C@H](C)CNc1ncc(-c2nc3c(C)nccc3s2)c(N[C@@H]2C[C@H](C(C)(C)O)[C@@H](O)[C@H]2O)n1` [Example 4939], for which the EC90 was below 0.5 µM. In the case of `Cc1nccc2sc(-c3cnc(NCCSC(C)(C)C)nc3N[C@@H]3C[C@H](C(C)(C)O)[C@@H](O)[C@H]3O)nc12` [Example 4940], the concentration for an effect of 90% (EC90) was below 0.5 µM. Consider `COC[C@@H](C)Nc1ncc(-c2nc3c(C)nccc3s2)c(N[C@@H]2C[C@H](C(C)(C)O)[C@@H](O)[C@H]2O)n1` [Example 4941], for which the concentration for an effect of 90% (EC90) was below 0.5 µM.
